Structures can show the parent of a compound that is named as a salt. Where two headings read alike, the source gives them in different places.
Experiments:
[1] = tested on: NCI-H292 lung cancer cells; experiment: FDA drug screening, complete media vs cholesterol-free media without statin (TABLE 1); type: cell-based, human
[2] = tested on: NCI-H292 lung cancer cells; experiment: FDA drug screening, complete media vs cholesterol-free media with simvastatin (TABLE 2); type: cell-based, human
[3] = NCI-H292 cells, cholesterol-free media without statin, FDA drug library screen
[4] = NCI-H292 cells, complete media, FDA drug library screen
[5] = complete vs cholesterol-free media, >0 enhanced anti-cancer activity, about 0 neutral, <0 antagonist
[6] = NCI-H292 cells, cholesterol-free media with simvastatin 0.04 μM, FDA drug library screen (TABLE 2)
[7] = NCI-H292 cells, complete media, FDA drug library screen (TABLE 2)
[8] = complete media minus cholesterol-free media + simvastatin (0.04 μM), >0 enhanced anti-cancer activity, about 0 neutral, <0 antagonist
[9] = Complete minus Cholesterol-free, >0 enhanced anti-cancer activity, about 0 neutral, <0 antagonist
[10] = complete vs cholesterol-free media, […]
[11] = complete media minus cholesterol-free media + simvastatin (0.04 μM), […]
[12] = NCI-H292 cells, FDA drug library screen, cholesterol-free media with simvastatin 0.04 μM
[13] = NCI-H292 cells, FDA drug library screen, complete media
[14] = complete media minus cholesterol-free media + simvastatin, >0 enhanced anti-cancer activity, about 0 neutral, <0 antagonist
[15] = NCI-H292 cells, FDA library drug in cholesterol-free media with simvastatin 0.04 μM
[16] = NCI-H292 cells, FDA library drug in complete media
[17] = complete media vs cholesterol-free media + simvastatin (0.04 μM), >0 enhanced anti-cancer activity, about 0 neutral, <0 antagonist
[18] = NCI-H292 cells, cholesterol-free media without statin
[19] = Complete minus Cholesterol-free, […]

`COc1ccc(-c2ccc3cc(C(=O)O)ccc3c2)cc1C12CC3CC(CC(C3)C1)C2` [Adapalene] was tested, and the Cholesterol-free [1, 3] was 0.6976, the Complete [1, 4] was 1.022 and the Difference [1, 5] was 0.32. For the same compound, the “Cholesterol-free media + simvastatin (0.04 μM)” value [2, 6] was 0.9237, the “Complete Media” value [2, 7] was 0.9286 and the Difference [2, 8] was 0.00.
Compound `CC(C)(C)C(=O)OCOP(=O)(COCCn1cnc2c(N)ncnc21)OCOC(=O)C(C)(C)C` [Adefovir dipivoxil] has a Difference [1, 9] of −0.04, a Cholesterol-free [1, 3] of 0.1811 and a Complete [1, 4] of 0.1375. The “Cholesterol-free media + simvastatin (0.04 μM)” value [2, 6] was 0.2485, the “Complete Media” value [2, 7] was 0.1986 and the Difference [2, 8] was −0.05.
Compound `Nc1ncnc2c1ncn2CCOCP(=O)(O)O` [Adefovir] has a Cholesterol-free [1, 3] of 0.8102, a Complete [1, 4] of 1.199 and a Difference [1, 10] of 0.39. For the same compound, the “Cholesterol-free media + simvastatin (0.04 μM)” value [2, 6] was 0.9937, the “Complete Media” value [2, 7] was 0.9462 and the Difference [2, 11] was −0.05.
In the case of `Nc1ncnc2[nH]cnc12` [Adenine], the Difference ([1]; Complete minus Cholesterol-free, greater than 0 enhanced anti-cancer activity, about 0 neutral, below 0 antagonists) is reported as −0.97, the Cholesterol-free ([1]; NCI-H292 cells in cholesterol-free media without statin) is reported as 1.858 and the Complete ([1]; NCI-H292 cells in complete media) is reported as 0.8914. For the same compound, the “Cholesterol-free media + simvastatin (0.04 μM)” value [2, 12] was 1.106, the “Complete Media” value [2, 13] was 1.256 and the Difference [2, 14] was 0.15.
`Nc1ncnc2c1ncn2[C@@H]1O[C@H](CO)[C@@H](O)[C@H]1O` [Adenosine] was tested, and the Difference ([1]; Complete minus Cholesterol-free, greater than 0 enhanced anti-cancer activity, about 0 neutral, below 0 antagonist) was −0.14, the Complete [1, 13] was 0.8055 and the “Cholesterol-free media + simvastatin (0.04 μM)” value [2, 15] was 1.888. For the same compound, the “Complete Media” value [2, 16] was 1.6 and the Difference [2, 17] was −0.29.
For `CCN(CC)CCOC(=O)C(c1ccccc1)c1ccccc1` [Adiphenine (hydrochloride)], the Difference [1, 9] was −0.20, the Cholesterol-free [1, 18] was 1.088 and the Complete ([1]; NCI-H292 cells, complete media) was 0.8864. The “Cholesterol-free media + simvastatin (0.04 μM)” value [2, 15] was 1.255, the “Complete Media” value [2, 16] was 0.9527 and the Difference [2, 17] was −0.30.
`CN(C)C/C=C/C(=O)Nc1cc2c(Nc3ccc(F)c(Cl)c3)ncnc2cc1O[C@H]1CCOC1` [Afatinib] was tested, and the Difference [1, 9] was 0.00, the Cholesterol-free [1, 3] was 0.02665 and the Complete [1, 4] was 0.0309. The “Cholesterol-free media + simvastatin (0.04 μM)” value ([2]; NCI-H292 cells, cholesterol-free media with simvastatin 0.04 μM, cell growth value in FDA drug screen) was 0.1756, the “Complete Media” value ([2]; NCI-H292 cells, complete media, cell growth value in FDA drug screen) was 0.2197 and the Difference [2, 14] was 0.04.
Work on `Cc1ccccc1-n1c(CF)nc2ccc(N)cc2c1=O` [Afloqualone] yielded a Difference [1, 19] of 0.04, a Cholesterol-free [1, 3] of 1.063 and a Complete [1, 4] of 1.104. The “Cholesterol-free media + simvastatin (0.04 μM)” value [2, 12] was 1.16, the “Complete Media” value [2, 13] was 1.332 and the Difference ([2]; complete media minus cholesterol-free media + simvastatin, […]) was 0.17.
`O=C(CNC(=O)c1ccc(C2=NOC(c3cc(Cl)cc(C(F)(F)F)c3)(C(F)(F)F)C2)c2ccccc12)NCC(F)(F)F` (stereo not shown) [Afoxolaner] gave a Cholesterol-free [1, 3] of 1.008, a Complete [1, 4] of 1.19 and a Difference [1, 10] of 0.18. For the same compound, the “Cholesterol-free media + simvastatin (0.04 μM)” value [2, 12] was 2.42 and the Difference [2, 11] was −1.05.
`COc1ccc2cccc(CCNC(C)=O)c2c1` [Agomelatine (hydrochloride)] showed a Difference [1, 9] of 0.00, a Cholesterol-free [1, 3] of 0.7477 and a Complete [1, 4] of 0.7483. The “Cholesterol-free media + simvastatin (0.04 μM)” value [2, 15] was 1.126, the “Complete Media” value [2, 16] was 0.7656 and the Difference [2, 17] was −0.36.
With `COc1ccc2cccc(CCNC(C)=O)c2c1` [Agomelatine] the Cholesterol-free [1, 3] was 0.6611, the Complete [1, 4] was 0.8138 and the Difference [1, 5] was 0.15. For the same compound, the “Cholesterol-free media + simvastatin (0.04 μM)” value [2, 15] was 1.184, the “Complete Media” value [2, 16] was 0.8914 and the Difference [2, 17] was −0.29.
In the case of `CC[C@H]1[C@@H]2C[C@H]3[C@@H]4N(C)c5ccccc5[C@]45C[C@@H]([C@H]2[C@H]5O)N3[C@@H]1O` [Ajmaline], the Difference [1, 19] is reported as −0.16, the Cholesterol-free ([1]; NCI-H292 cells, FDA drug library screen, cholesterol-free media without statin) is reported as 1.107 and the Complete [1, 13] is reported as 0.943. The “Cholesterol-free media + simvastatin (0.04 μM)” value [2, 6] was 1.33, the “Complete Media” value [2, 7] was 1.333 and the Difference [2, 11] was 0.00.
Work on `CCC[S+]([O-])c1ccc2[nH]c(NC(=O)OC)nc2c1` (stereo not shown) [Albendazole sulfoxide] yielded a Cholesterol-free [1, 18] of 1.467, a Complete ([1]; NCI-H292 cells, complete media) of 1.005 and a Difference [1, 10] of −0.46. For the same compound, the “Cholesterol-free media + simvastatin (0.04 μM)” value ([2]; NCI-H292 cells, drug in cholesterol-free media with simvastatin 0.04 μM) was 1.376, the “Complete Media” value ([2]; NCI-H292 cells, drug in complete media) was 1.125 and the Difference ([2]; complete media vs cholesterol-free media + simvastatin (0.04 μM), […]) was −0.25.
For `CCCSc1ccc2nc(NC(=O)OC)[nH]c2c1` [Albendazole], the Cholesterol-free [1] was 0.9001, the Complete [1] was 0.9862 and the Difference [1] was 0.09. The “Cholesterol-free media + simvastatin (0.04 μM)” value [2] was 1.236, the “Complete Media” value [2] was 0.9882 and the Difference [2] was −0.25.
